{
  "source": "patent US20240115649A1",
  "about": "“CASPASE INHIBITION TO ENHANCE REGENERATION AND REPAIR AFTER SKIN OR GUT INJURY AND TO TREAT BACTERIAL OR VIRAL INFECTIONS” (The Johns Hopkins University, priority 2020, published 2024)",
  "key": {"[1]": {"test_system": "DSS treated C57BL/J6 mice", "assay": "DSS-induced colitis model", "format": "in vivo", "excerpt": "Histology. Biopsies from mouse colon and skin tissue were removed and fixed in 4% paraformaldehyde overnight and then transferred to 70% ethanol. Samples were then submitted to the Johns Hopkins Oncology Tissue Services Core facility where they were embedded in paraffin. Tissue sections were obtained at 4pin thickness and mounted onto glass slides, followed by hematoxylin and eosin (H&E) staining.\nColitis Model. In order to induce colitis, adult wild-type, Rnasel -A , and Il36r^−/− mice were fed up to 4% (w/v) 36-50 kDa dextran sodium sulfate (DSS) (MP Biomedicals, 160110) in sterile water^37. Weight changes were monitored and recorded every day. For rescue experiments using the pan-caspase inhibitor Q-VD-OPh, mice were treated at the same concentrations as in WIHN experiments and were injected intraperitoneally during the day when noticeable weight loss began to occur (˜day 3-4). Mice were eventually sacrificed and colon lengths were extracted for gross examination and downstream FACS and protein analysis."}, "ASC specks": {"test_system": "ASC specks", "assay": "ASC speck formation in ASC-Citrine mice (in vivo FLI, PuLSA assay)"}, "TNF": {"test_system": "TNF", "assay": "Serum TNF levels after S. aureus skin inoculation", "format": "in vivo, mice", "conditions": "days 1 and 3; vs untreated", "protocol": "Serum IL-1β and TNF levels. Serum IL-1β and TNF protein levels (pg/mL) were measured from serum collected on days 1 and 3 after S. aureus skin inoculation±Q-VD-OPH treatment using Bio-Plex protein assays and normalized to total protein, according to the manufacturer's recommendations (Bio-Rad)."}, "[2]": {"test_system": "S. aureus USA300 LAC::lux", "assay": "Bacterial growth curve kinetics, S. aureus broth cultures", "format": "cell-based", "conditions": "10, 100 and 1,000 μg/mL; 10 hours; vs vehicle"}},
  "data": [
    {"smiles": "CC(C)[C@H](NC(=O)c1ccc2ccccc2n1)C(=O)N[C@@H](CC(=O)O)C(=O)COc1c(F)cccc1F", "note": "[Q-VD-OPH, Quinoline-val-asp-difluorophenoxymethyl ketone]", "values": [
      {"measurement": "gut shortening after DSS treatment", "setting": "[1]; Il36r^−/− mice", "value": "does not rescue gut shortening"},
      {"measurement": "weight loss", "setting": "[1]; Il36r^−/− mice, DSS", "value": "does not rescue weight loss"},
      {"measurement": "IL-36α expression in the gut", "setting": "[1]; WT mice", "value": "Increased IL-36α expression"},
      {"measurement": "neutrophil abundance in the blood or the gut", "setting": "[1]; regenerative phase following cessation of DSS, vs controls", "value": "no change in neutrophil abundance"},
      {"measurement": "DSS-induced weight loss", "setting": "[1]; wild-type mice, 4% DSS, Q-VD-OPh i.p. 1.33 mM, vs control", "value": "protected from DSS-induced weight loss"},
      {"measurement": "colon length and morphology", "setting": "[1]; wild-type mice, 4% DSS, Q-VD-OPh i.p., vs control", "value": "longer and better colon morphology"},
      {"measurement": "in vivo ASC speck formation (in vivo FLI signals)", "setting": "ASC specks; ASC-Citrine mice, 6 hours following Q-VD-OPH administration", "value": "virtually inhibited all in vivo ASC speck formation"},
      {"measurement": "percentage of total ASC-Citrine expression in live cells", "setting": "ASC specks; infected skin, day 1, treated vs untreated", "value": "not significantly different"},
      {"measurement": "percentage of cells with ASC-Specks (PuLSA assay)", "setting": "ASC specks; infected skin, day 1, vs untreated", "value": "substantially reduced percentage of cells with ASC-Specks"},
      {"measurement": "serum TNF protein levels", "setting": "TNF", "value": "increased serum TNF protein levels"},
      {"measurement": "in vitro absorbance, bioluminescence and CFU (direct antibacterial activity)", "setting": "[2]", "value": "no differences in in vitro absorbance, bioluminescence and CFU"}
    ]}
  ]
}
